≈ marks a conversion by molar mass, not a printed value.
tested on: Babesia gibsoni; assay: Antibabesial activity against Babesia gibsoni; type: functional, organism-based

| Structure (SMILES) | IC50 [µg/mL] |
| --- | --- |
| CC1=CC(=O)[C@@H](O)[C@]2(C)[C@H]3[C@@H](O)[C@H](O)[C@]4(CO)OC[C@@]35[C@@H](C[C@@H]12)OC(=O)[C@H](O)[C@]54O [YADANZIOLIDE A] | 0.216 (≈ 0.507 µM) |
| COC(=O)[C@]12OC[C@]34[C@H]([C@@H](O)[C@@H]1O)[C@@]1(C)CC(=O)C(O)=C(C)[C@@H]1C[C@H]3OC(=O)[C@H](OC(=O)/C=C(\C)C(C)(C)OC(C)=O)[C@@H]24 [BRUCEANTINOL] | 0.012 (≈ 0.0198 µM) |
| CC1=C(O)C(=O)C[C@]2(C)[C@H]3[C@@H](O)[C@H](O)[C@@]4(C(=O)O)OC[C@@]35[C@@H](C[C@@H]12)OC(=O)[C@H](OC(=O)CC(C)C)[C@@H]45 [BRUCEINE J] | 0.742 (≈ 1.46 µM) |
| CC1=CC(=O)[C@@H](O)[C@]2(C)[C@H]3[C@@H](O)[C@H](O)[C@]4(C)OC[C@@]35[C@@H](C[C@@H]12)OC(=O)[C@H](O)[C@]54O [BRUCEINE D] | 0.835 (≈ 2.03 µM) |

Results, then the molecule that gave them:

| IC50 [µg/mL] | Structure (SMILES) |
| --- | --- |
| 0.004 (≈ 0.00765 µM) | COC(=O)[C@@]12OC[C@]34[C@H]([C@@H](O)[C@@H]1O)[C@@]1(C)CC(=O)C(O)=C(C)[C@@H]1C[C@H]3OC(=O)[C@H](OC(=O)CC(C)C)[C@@H]24 [BRUCEINE A] |
| 0.978 (≈ 1.65 µM) | CC(=O)OC(C)(C)/C(C)=C/C(=O)O[C@H]1C(=O)O[C@@H]2C[C@H]3C(C)=C(O)C(=O)C[C@]3(C)[C@H]3[C@@H](O)[C@H](O)[C@@]4(C(=O)O)OC[C@]32[C@@H]14 [BRUCEANTINOL B] |
| 0.107 (≈ 0.19 µM) | COC(=O)[C@]12OC[C@]34[C@H]([C@@H](O)[C@@H]1O)[C@@]1(C)CC(=O)C(O)=C(C)[C@@H]1C[C@H]3OC(=O)[C@H](OC(=O)/C=C(\C)C(C)(C)O)[C@@H]24 [BRUCEINE C] |
| 0.103 | CC(=O)NCC(=O)O.N=C(N)c1ccc(/N=N/Nc2ccc(C(=N)N)cc2)cc1 [DIMINAZEN ACETURATE] |
| 0.893 (≈ 1.86 µM) | COC(=O)[C@@]12OC[C@]34[C@H]([C@@H](O)[C@@H]1O)[C@@]1(C)CC(=O)C(O)=C(C)[C@@H]1C[C@H]3OC(=O)[C@H](OC(C)=O)[C@@H]24 [BRUCEINE B] |

Reference: ChEMBL document CHEMBL1141310, “Screening of Indonesian medicinal plant extracts for antibabesial activity and isolation of new quassinoids from Brucea javanica” (J Nat Prod, 2007)
